{"source": "ChEMBL document CHEMBL6153155", "about": "“Novel Cyclohexyl Amido Acid Antagonists of Lysophosphatidic Acid Type 1 Receptor for the Treatment of Pulmonary Fibrosis” (ACS Med Chem Lett, 2025)", "key": {"[1]": {"test": "Unbound AUClast in female C57BL/6J mouse lung at 30 mg/kg, po measured after 24 hrs by UPLC-MS/MS analysis", "format": "ADME, organism-based", "settings": "in vivo"}, "[2]": {"test": "Half life in female C57BL/6J mouse at 2 mg/kg, iv measured after 24 hrs by UPLC-MS/MS analysis", "format": "ADME, organism-based", "settings": "in vivo"}, "[3]": {"test": "Unbound Cmax in female C57BL/6J mouse plasma at 30 mg/kg, po measured after 24 hrs by UPLC-MS/MS analysis", "format": "ADME, organism-based", "settings": "in vivo"}, "[4]": {"test": "Unbound AUClast in female C57BL/6J mouse plasma at 30 mg/kg, po measured after 24 hrs by UPLC-MS/MS analysis", "format": "ADME, organism-based", "settings": "in vivo"}, "[5]": {"test": "Total AUClast in female C57BL/6J mouse plasma at 30 mg/kg, po measured after 24 hrs by UPLC-MS/MS analysis", "format": "ADME, organism-based", "settings": "in vivo"}, "[6]": {"test": "Oral bioavailability in female C57BL/6J mouse at 2 mg/kg, iv measured after 24 hrs by UPLC-MS/MS analysis", "format": "ADME, organism-based", "settings": "in vivo"}, "[7]": {"test": "Clearance in female C57BL/6J mouse at 2 mg/kg, iv measured after 24 hrs by UPLC-MS/MS analysis", "format": "ADME, organism-based", "settings": "in vivo"}, "[8]": {"test": "Metabolic stability in human liver microsomes assessed as intrinsic clearance measured per mg of protein at 0.5 uM measured upto 45 mins in presence of NADPH regenerating system by HPLC-MS/MS analysis", "format": "ADME, Microsome", "settings": "read-out: CLH"}, "[9]": {"test": "Tlast in female C57BL/6J mouse lung at 30 mg/kg, po measured after 24 hrs by UPLC-MS/MS analysis", "format": "ADME, organism-based", "settings": "in vivo"}, "Bile salt export pump": {"target": "Bile salt export pump (Homo sapiens, UniProt O95342)", "sequence (O95342 whole entry)": "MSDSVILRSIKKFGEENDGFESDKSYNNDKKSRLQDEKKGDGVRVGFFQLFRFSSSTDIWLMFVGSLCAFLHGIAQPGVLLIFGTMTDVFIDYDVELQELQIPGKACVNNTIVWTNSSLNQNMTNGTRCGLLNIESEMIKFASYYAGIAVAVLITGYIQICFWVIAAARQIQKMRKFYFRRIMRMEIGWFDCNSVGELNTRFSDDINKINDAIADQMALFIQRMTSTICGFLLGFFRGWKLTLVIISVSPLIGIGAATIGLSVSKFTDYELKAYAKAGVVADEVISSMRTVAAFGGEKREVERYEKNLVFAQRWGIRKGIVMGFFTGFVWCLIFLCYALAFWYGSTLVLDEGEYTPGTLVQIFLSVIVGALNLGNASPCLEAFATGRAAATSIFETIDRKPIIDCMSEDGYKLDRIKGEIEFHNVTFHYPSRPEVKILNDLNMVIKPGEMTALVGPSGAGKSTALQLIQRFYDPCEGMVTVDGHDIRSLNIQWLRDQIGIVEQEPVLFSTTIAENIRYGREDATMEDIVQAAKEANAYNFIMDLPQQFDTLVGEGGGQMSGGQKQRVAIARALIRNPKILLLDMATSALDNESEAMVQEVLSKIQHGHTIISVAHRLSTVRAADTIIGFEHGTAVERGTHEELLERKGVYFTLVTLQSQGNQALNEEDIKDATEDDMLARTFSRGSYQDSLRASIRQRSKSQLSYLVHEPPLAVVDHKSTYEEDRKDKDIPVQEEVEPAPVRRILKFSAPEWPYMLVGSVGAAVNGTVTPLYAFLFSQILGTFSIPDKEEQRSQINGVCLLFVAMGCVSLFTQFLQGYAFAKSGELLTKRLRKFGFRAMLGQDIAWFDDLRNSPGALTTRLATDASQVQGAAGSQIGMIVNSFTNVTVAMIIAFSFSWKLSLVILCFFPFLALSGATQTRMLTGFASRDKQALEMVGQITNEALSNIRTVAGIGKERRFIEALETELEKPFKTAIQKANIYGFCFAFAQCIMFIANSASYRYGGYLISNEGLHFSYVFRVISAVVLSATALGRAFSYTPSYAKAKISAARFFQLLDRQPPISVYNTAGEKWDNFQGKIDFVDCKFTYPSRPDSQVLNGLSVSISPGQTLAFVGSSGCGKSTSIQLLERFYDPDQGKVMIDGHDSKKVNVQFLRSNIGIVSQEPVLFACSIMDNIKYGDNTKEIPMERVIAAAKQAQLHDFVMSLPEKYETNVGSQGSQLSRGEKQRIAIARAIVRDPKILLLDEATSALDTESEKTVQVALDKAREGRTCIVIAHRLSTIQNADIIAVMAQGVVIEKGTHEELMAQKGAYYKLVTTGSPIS", "test": "Inhibition of BSEP in cryopreserved sandwich-cultured human hepatocytes by measuring reduction in TCA biliary clearance using taurocholic acid as substrate", "format": "cell-based, Hepatocyte"}, "[10]": {"test": "Lipophilicity, logD of compound at pH 7.4 by chromatographic hydrophobicity index method", "format": "physicochemical", "settings": "buffer"}, "BSEP": {"target": "BSEP (Homo sapiens, UniProt O95342)", "sequence (O95342 whole entry)": "as above", "test": "Inhibition of BSEP in cryopreserved sandwich-cultured human hepatocytes by measuring reduction in TCA biliary clearance using taurocholic acid as substrate at 50 uM relative to control", "format": "cell-based, Hepatocyte", "settings": "cryopreserved sandwich-cultured hepatocytes, probe taurocholic acid"}, "[11]": {"test": "Tlast in female C57BL/6J mouse plasma at 30 mg/kg, po measured after 24 hrs by UPLC-MS/MS analysis", "format": "ADME, organism-based", "settings": "in vivo"}, "[12]": {"target": "Lysophosphatidic acid receptor 1 (Mus musculus, UniProt P61793)", "sequence (P61793 whole entry)": "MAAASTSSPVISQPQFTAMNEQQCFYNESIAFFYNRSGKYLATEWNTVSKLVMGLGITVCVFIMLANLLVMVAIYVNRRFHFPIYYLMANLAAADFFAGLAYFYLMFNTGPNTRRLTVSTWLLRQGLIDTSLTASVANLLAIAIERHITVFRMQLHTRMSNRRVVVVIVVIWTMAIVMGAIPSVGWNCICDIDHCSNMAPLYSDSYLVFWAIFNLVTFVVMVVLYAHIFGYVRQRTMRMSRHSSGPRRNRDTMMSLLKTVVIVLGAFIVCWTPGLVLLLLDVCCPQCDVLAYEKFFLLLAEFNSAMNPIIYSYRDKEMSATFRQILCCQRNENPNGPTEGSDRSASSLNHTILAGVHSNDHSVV", "test": "Antagonist activity at mouse LPA1 transfected in human HeLa cells incubated for 30 mins by FLIPR-based calcium mobilization assay", "format": "cell-based"}, "[13]": {"test": "Aqueous solubility of the compound at pH 7.4", "format": "physicochemical", "settings": "buffer"}, "[14]": {"test": "Total Cmax in female C57BL/6J mouse plasma at 30 mg/kg, po measured after 24 hrs by UPLC-MS/MS analysis", "format": "ADME, organism-based"}, "[15]": {"test": "Unbound Cmax in female C57BL/6J mouse lung at 30 mg/kg, po measured after 24 hrs by UPLC-MS/MS analysis", "format": "ADME, organism-based", "settings": "in vivo"}, "[16]": {"test": "Total AUClast in female C57BL/6J mouse lung at 30 mg/kg, po measured after 24 hrs by UPLC-MS/MS analysis", "format": "ADME, organism-based", "settings": "in vivo"}, "[17]": {"test": "Volume of distribution at steady state in female C57BL/6J mouse at 2 mg/kg, iv measured after 24 hrs by UPLC-MS/MS analysis", "format": "ADME, organism-based", "settings": "in vivo, read-out: Vdss"}, "[18]": {"test": "Metabolic stability in female C57BL/6J mouse liver microsomes assessed as intrinsic clearance measured per mg of protein at 0.5 uM measured upto 45 mins in presence of NADPH regenerating system by HPLC-MS/MS analysis", "format": "ADME, Microsome", "settings": "read-out: CLH"}, "[19]": {"test": "Total Cmax in female C57BL/6J mouse lung at 30 mg/kg, po measured after 24 hrs by UPLC-MS/MS analysis", "format": "ADME, organism-based"}, "Mus musculus": {"system": "Mus musculus", "test": "Inhibition of LPA-stimulated histamine release in male CD1 mouse plasma assessed as effective dose administered as po dose pretreated for 30 mins followed by LPA addition measured after 2 mins by enzyme immunoassay", "format": "functional", "settings": "32 min"}}}
{"smiles": "Cc1nc(-c2cnn(C)c2NC(=O)O[C@H](C)c2ccccc2Cl)ccc1NC(=O)[C@H]1CCCC[C@@H]1C(=O)O", "values": [{"measurement": "fAUClast", "setting": "[1]", "result": 1071, "unit": "h/ng/mL"}, {"measurement": "half-life", "setting": "[2]", "result": 2.48, "unit": "h"}, {"measurement": "fCmax", "setting": "[3]", "result": 1758, "unit": "ng/mL"}, {"measurement": "fAUClast", "setting": "[4]", "result": 2621, "unit": "h/ng/mL"}, {"measurement": "AUClast", "setting": "[5]", "result": 80800, "unit": "h/ng/mL"}, {"measurement": "bioavailability", "setting": "[6]", "result": 49, "unit": "%"}, {"measurement": "clearance", "setting": "[7]", "result": 2.99, "unit": "mL/min/kg"}, {"measurement": "microsomal CLint at 0.5 µM", "setting": "[8]", "result": 7, "unit": "µL/min/mg"}, {"measurement": "Tlast", "setting": "[9]", "result": 8, "unit": "h"}, {"measurement": "IC50", "setting": "Bile salt export pump", "result": "> 100000", "unit": "nM"}, {"measurement": "chromatographic logD", "setting": "[10]", "result": 1.12}, {"measurement": "inhibition at 50 µM", "setting": "BSEP", "result": 28, "unit": "%"}, {"measurement": "Tlast", "setting": "[11]", "result": 8, "unit": "h"}, {"measurement": "IC50", "setting": "[12]", "result": 25.1, "unit": "nM"}, {"measurement": "solubility", "setting": "[13]", "result": 295, "unit": "µM"}, {"measurement": "Cmax", "setting": "[14]", "result": 54200, "unit": "ng/mL"}, {"measurement": "fCmax", "setting": "[15]", "result": 498, "unit": "ng/mL"}, {"measurement": "AUClast", "setting": "[16]", "result": 17100, "unit": "h/ng/mL"}, {"measurement": "Vd", "setting": "[17]", "result": 0.35, "unit": "L/kg"}, {"measurement": "microsomal CLint at 0.5 µM", "setting": "[18]", "result": "< 2", "unit": "µL/min/mg"}, {"measurement": "Cmax", "setting": "[19]", "result": 7950, "unit": "ng/mL"}]}
{"smiles": "Cc1noc(-c2ccc(NC(=O)[C@H]3CCCC[C@@H]3C(=O)O)cn2)c1NC(=O)O[C@H](C)c1ccccc1Cl", "values": [{"measurement": "fAUClast", "setting": "[1]", "result": 262, "unit": "h/ng/mL"}, {"measurement": "half-life", "setting": "[2]", "result": 0.69, "unit": "h"}, {"measurement": "fCmax", "setting": "[3]", "result": 749, "unit": "ng/mL"}, {"measurement": "fAUClast", "setting": "[4]", "result": 1249, "unit": "h/ng/mL"}, {"measurement": "AUClast", "setting": "[5]", "result": 44200, "unit": "h/ng/mL"}, {"measurement": "bioavailability", "setting": "[6]", "result": 66, "unit": "%"}, {"measurement": "clearance", "setting": "[7]", "result": 6.96, "unit": "mL/min/kg"}, {"measurement": "microsomal CLint at 0.5 µM", "setting": "[8]", "result": 6.3, "unit": "µL/min/mg"}, {"measurement": "Tlast", "setting": "[9]", "result": 8, "unit": "h"}, {"measurement": "IC50", "setting": "Bile salt export pump", "result": 50100, "unit": "nM"}, {"measurement": "chromatographic logD", "setting": "[10]", "result": 1.52}, {"measurement": "inhibition at 50 µM", "setting": "BSEP", "result": 50, "unit": "%"}, {"measurement": "Tlast", "setting": "[11]", "result": 24, "unit": "h"}, {"measurement": "IC50", "setting": "[12]", "result": 31.6, "unit": "nM"}, {"measurement": "solubility", "setting": "[13]", "result": 458, "unit": "µM"}, {"measurement": "Cmax", "setting": "[14]", "result": 26500, "unit": "ng/mL"}, {"measurement": "fCmax", "setting": "[15]", "result": 139, "unit": "ng/mL"}, {"measurement": "ED50", "setting": "Mus musculus", "result": 0.1, "unit": "mg/kg"}, {"measurement": "AUClast", "setting": "[16]", "result": 8000, "unit": "h/ng/mL"}, {"measurement": "Vd", "setting": "[17]", "result": 0.24, "unit": "L/kg"}, {"measurement": "microsomal CLint at 0.5 µM", "setting": "[18]", "result": 4, "unit": "µL/min/mg"}, {"measurement": "Cmax", "setting": "[19]", "result": 4230, "unit": "ng/mL"}]}
